Target: T1, Recombinant His6-tagged IDE (Homo sapiens, UniProt P14735)
T1 construct: made in house; host or cells: E. coli Rosetta 2 (DE3) pLysS, plasmid pTrcHis-A
T1 sequence (P14735 42-1019): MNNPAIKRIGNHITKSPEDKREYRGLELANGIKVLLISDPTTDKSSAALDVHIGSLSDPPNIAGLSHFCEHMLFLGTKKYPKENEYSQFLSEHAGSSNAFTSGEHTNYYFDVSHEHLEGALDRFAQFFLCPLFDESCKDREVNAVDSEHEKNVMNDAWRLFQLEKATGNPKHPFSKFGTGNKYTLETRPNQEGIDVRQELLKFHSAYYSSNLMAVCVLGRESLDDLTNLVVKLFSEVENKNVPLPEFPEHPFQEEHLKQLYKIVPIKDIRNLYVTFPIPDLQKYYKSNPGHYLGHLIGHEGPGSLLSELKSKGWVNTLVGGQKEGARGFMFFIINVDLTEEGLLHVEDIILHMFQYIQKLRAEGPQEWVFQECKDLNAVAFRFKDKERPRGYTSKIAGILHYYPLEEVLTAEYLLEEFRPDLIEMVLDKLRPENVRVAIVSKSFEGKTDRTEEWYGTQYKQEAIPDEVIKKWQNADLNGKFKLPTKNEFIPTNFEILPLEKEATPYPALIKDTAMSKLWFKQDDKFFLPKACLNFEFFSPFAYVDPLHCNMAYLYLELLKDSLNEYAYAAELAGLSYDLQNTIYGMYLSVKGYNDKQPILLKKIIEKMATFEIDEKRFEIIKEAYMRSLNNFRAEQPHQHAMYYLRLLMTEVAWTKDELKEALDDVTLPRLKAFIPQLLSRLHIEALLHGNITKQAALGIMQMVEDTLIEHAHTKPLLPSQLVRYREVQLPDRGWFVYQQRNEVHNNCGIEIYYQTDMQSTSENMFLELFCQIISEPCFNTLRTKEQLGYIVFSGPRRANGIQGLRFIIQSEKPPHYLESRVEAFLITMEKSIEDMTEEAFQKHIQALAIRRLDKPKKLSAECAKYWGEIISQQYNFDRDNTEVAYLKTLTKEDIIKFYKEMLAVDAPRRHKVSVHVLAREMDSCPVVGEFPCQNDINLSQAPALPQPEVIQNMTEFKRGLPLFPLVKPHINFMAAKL
Experiment: IDE protease activity assay with fluorogenic peptide substrate Mca-RPPGFSAFK(Dnp)-OH
Assay type: biochemical
Conditions: inhibitor 20 μM final; purified recombinant His6-tagged IDE proteins
Description: Recombinant His6-tagged IDE and IDE-A479L were purified by Ni(II)-affinity chromatography (IMAC sepharose beads, GE Healthcare®) according to the manufacturer's instructions. The cell pellets were resuspended in pH 8.0 buffer containing 50 mM phosphate, 300 mM NaCl, 10 mM imidazole, 1% Triton X-100 and 1 mM tris(2-carboxyethyl)phosphine hydrochloride (TCEP), and were lysed by probe sonication for 4 min at <4° C., followed by clearing of cell debris by centrifugation at 10,000 g for 25 min at 4° C. The supernatant was incubated with Ni(II)-doped IMAC resin (2 mL) for 3 h at 4° C. The resin was washed twice with the cell resuspension/lysis buffer, and three times with pH 8.0 buffer containing 50 mM phosphate, 300 mM NaCl, 50 mM imidazole and 1 mM TCEP. Elution was performed in 2 mL aliquots by raising the imidazole concentration to 250 mM and subsequently to 500 mM in the previous buffer. The fractions were combined and the buffer was exchanged to the recommended IDE buffer (R&D) using spin columns with 100 KDa molecular weight cut off membranes (Millipore). Protein yields were typically ˜10 μg/L, and >90% purity based on gel electrophoresis analysis (Coomassie stained).

With `NCCCC[C@@H]1NC(=O)/C=C/C(=O)N[C@H](C(N)=O)CCCCNC(=O)[C@@H](Cc2ccc(C(=O)c3ccccc3)cc2)NC(=O)[C@H](CC2CCCCC2)NC1=O` [6bK] the “IDE-specific protease activity as assessed by inhibition of degradation of peptide substrate Mca-RPPGFSAFK(Dnp)-OH” value was over 95%.
